How the values were obtained:
[1] = Inhibition of anti-human alphaIgM-stimulated MIP1beta production in human Ramos B cells preincubated for 1 hr followed by anti-human IgM stimulation for 6 hrs by ELISA; type: functional, cell-based
[2] = biological target: Epidermal growth factor receptor (Homo sapiens, UniProt P00533); test: Inhibition of EGFR (unknown origin) expressed in baculovirus system using fluorescein labeled PDGFR-tide substrate peptide preincubated for 60 mins followed by ATP addition and measured after 60 mins by IMAP assay
[3] = biological target: T1, Tyrosine-protein kinase BTK (Homo sapiens, UniProt Q06187); test: Inhibition of human recombinant full length N-terminal His6-tagged BTK expressed in baculovirus infected Sf9 cells using fluorescein labeled Blk/Lyntide substrate preincubated with enzyme for 60 mins followed by further incubation with substrate and ATP for 120 mins by IMAP assay
[4] = Inhibition of goat anti-human IgM F(ab')-stimulated CD69 cell surface expression in human PBMC preincubated for 2 hrs followed by anti-human IgM stimulation for 18 hrs by flow cytometric analysis; type: functional, tissue-based
[5] = system: Blood; test: Inhibition of mouse anti-human anti-IgD-stimulated CD69 cell surface expression in human whole blood preincubated for 2 hrs followed by anti-human anti-IgD stimulation for 18 hrs by flow cytometric analysis; type: functional, tissue-based
[6] = Solubility of compound by turbidimetric assay; type: physicochemical
[7] = species on record: Homo sapiens; test: Selectivity index, ratio of IC50 for EGFR (unknown origin) expressed in baculovirus system to IC50 for human recombinant full length N-terminal His6-tagged BTK expressed in baculovirus infected Sf9 cells
[8] = biological target: T1, Tyrosine-protein kinase BTK; test: Covalent inhibition of His-tagged human full length recombinant BTK expressed in baculovirus expression system incubated for 5 to 120 mins by Lanthascreen TR-FRET assay; details: time min 5-120, TDE = time-dependent effect
[9] = In vivo inhibition of CD69 expression in po dosed mouse; type: functional
[10] = biological target: Tyrosine-protein kinase Blk (Homo sapiens, UniProt P51451); test: Inhibition of recombinant full length human His-tagged BLK cytoplasmic domain expressed in baculovirus expression system using tyrosine-1 peptide as substrate preincubated for 1 hr in presence of ATP by Z'-LYTE assay
Chain of Tyrosine-protein kinase Blk (P51451 whole entry, the tested form may be a part): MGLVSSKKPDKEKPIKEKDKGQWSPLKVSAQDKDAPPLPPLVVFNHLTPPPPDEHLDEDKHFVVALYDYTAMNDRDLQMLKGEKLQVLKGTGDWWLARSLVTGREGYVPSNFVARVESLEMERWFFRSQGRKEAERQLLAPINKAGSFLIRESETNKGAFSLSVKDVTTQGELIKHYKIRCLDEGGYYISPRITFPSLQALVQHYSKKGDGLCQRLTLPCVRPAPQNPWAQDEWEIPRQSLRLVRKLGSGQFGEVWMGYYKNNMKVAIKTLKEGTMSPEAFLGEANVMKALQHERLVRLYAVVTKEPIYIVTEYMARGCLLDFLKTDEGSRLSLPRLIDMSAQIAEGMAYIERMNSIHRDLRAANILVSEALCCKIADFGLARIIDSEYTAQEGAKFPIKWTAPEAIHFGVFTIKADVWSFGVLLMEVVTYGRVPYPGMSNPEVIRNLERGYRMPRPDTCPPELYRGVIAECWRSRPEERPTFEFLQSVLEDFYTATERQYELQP

T1 sequence (Q06187 whole entry): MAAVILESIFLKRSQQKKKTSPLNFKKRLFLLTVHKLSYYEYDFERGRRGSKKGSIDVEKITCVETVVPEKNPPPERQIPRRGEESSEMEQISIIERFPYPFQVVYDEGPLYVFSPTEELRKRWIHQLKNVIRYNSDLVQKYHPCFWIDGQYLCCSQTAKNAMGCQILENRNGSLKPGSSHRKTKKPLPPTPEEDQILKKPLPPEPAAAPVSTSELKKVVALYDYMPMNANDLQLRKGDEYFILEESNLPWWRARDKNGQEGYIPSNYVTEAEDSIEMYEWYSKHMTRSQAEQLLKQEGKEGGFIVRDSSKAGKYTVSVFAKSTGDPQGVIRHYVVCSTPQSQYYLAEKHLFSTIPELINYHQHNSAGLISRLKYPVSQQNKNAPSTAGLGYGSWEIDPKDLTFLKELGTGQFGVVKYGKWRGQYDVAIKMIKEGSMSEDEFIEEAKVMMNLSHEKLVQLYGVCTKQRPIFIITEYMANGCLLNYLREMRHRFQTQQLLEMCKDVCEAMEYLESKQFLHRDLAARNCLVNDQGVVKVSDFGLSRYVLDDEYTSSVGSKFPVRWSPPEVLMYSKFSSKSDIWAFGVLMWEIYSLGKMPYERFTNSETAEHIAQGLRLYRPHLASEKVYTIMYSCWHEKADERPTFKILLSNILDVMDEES
Chain of Epidermal growth factor receptor (P00533 whole entry): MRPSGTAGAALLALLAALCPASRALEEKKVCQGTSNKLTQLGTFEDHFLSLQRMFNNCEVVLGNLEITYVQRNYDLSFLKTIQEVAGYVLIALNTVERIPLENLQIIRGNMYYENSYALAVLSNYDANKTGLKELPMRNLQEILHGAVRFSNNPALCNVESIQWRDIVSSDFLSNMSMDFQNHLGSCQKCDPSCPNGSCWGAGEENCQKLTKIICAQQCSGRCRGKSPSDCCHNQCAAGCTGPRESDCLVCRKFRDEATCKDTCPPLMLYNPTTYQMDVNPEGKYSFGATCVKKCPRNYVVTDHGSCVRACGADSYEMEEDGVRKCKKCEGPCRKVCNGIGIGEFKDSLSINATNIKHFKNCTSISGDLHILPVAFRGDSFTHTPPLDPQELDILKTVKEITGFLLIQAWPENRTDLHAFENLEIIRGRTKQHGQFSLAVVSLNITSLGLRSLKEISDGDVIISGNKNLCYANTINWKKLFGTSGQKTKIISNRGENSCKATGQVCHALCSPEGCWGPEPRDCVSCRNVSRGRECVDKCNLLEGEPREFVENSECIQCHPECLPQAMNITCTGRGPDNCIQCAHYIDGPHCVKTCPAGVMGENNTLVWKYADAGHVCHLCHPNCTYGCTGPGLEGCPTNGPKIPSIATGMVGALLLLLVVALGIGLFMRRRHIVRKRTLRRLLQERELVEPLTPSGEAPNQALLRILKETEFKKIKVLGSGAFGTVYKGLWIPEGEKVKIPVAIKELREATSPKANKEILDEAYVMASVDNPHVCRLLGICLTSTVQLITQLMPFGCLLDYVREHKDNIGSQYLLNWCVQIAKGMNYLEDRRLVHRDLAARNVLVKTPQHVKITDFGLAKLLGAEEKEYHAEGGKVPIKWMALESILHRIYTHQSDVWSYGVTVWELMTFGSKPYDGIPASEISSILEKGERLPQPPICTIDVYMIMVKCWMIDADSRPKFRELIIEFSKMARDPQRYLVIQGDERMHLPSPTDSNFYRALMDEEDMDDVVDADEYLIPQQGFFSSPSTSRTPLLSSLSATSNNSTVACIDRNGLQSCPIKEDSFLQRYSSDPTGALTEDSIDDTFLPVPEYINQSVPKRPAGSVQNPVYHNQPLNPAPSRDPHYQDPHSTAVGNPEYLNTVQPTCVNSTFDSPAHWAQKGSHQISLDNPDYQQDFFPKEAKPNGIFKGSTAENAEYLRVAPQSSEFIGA

| SMILES | EC50 [1] | IC50 [2] | IC50 [3] | other results |
| --- | --- | --- | --- | --- |
| COc1cc2nccc(Oc3ccc(C(=O)Nc4ccccn4)cc3)c2cc1NC(=O)C#CCN1CCOCC1 | 2.1 nM | 24 nM | 0.47 nM | EC50 [4]: 1.5 nM; EC50 [5]: 12 nM |
| O=C(C#CCCN1CCOCC1)Nc1ccc2nccc(Oc3ccc(C(=O)Nc4ccccn4)cc3)c2c1 | 25 nM | 81 nM | 0.8 nM | – |
| CC#CC(=O)Nc1cc2c(Oc3ccc(C(=O)Nc4ccccn4)cc3)ccnc2cc1OC | 29 nM | > 1000 nM | 1.5 nM | EC50 [4]: 9.7 nM; EC50 [5]: 66 nM |
| C=CC(=O)Nc1ccc2ncnc(Oc3ccc(C(=O)Nc4ccccn4)cc3)c2c1 | – | 11 nM | – | EC50 [3]: 7.2 nM; inhibition [8]: Tde |
| C=CC(=O)Nc1ccc2nccc(Oc3ccc(C(=O)Nc4ccccn4)cc3)c2c1 | 112 nM | 159 nM | 3.5 nM | – |
| C=CC(=O)Nc1ccc2ncnc(Nc3ccc(C(=O)Nc4ccccn4)cc3)c2c1 | – | 3.8 nM | – | EC50 [3]: 18 nM |
| CC#CC(=O)Nc1cc2c(Oc3ccc(C(=O)Nc4ccccn4)cc3)ccnc2cc1OC1CCOCC1 | 152 nM | > 1000 nM | 3.8 nM | – |
| CN(C)C/C=C/C(=O)Nc1ccc2nccc(Oc3ccc(C(=O)Nc4ccccn4)cc3)c2c1 | 89 nM | 275 nM | 7.2 nM | – |
| CC#CC(=O)N1CCC[C@H]1c1nc(-c2ccc(C(=O)Nc3ccccn3)cc2)c2c(N)nccn12 [ACALABRUTINIB] | – | – | – | ED50 [9]: 1.3 mg/kg; IC50 [10]: > 1000 nM |
| COCC#CC(=O)Nc1ccc2nccc(Oc3ccc(C(=O)Nc4ccccn4)cc3)c2c1 | 7 nM | 16 nM | 0.15 nM | – |

Further lines, with some results ahead:

| EC50 [1] | IC50 [2] | IC50 [3] | SMILES | other results |
| --- | --- | --- | --- | --- |
| 28 nM | 6.3 nM | 0.33 nM | O=C(C#CCO)Nc1ccc2nccc(Oc3ccc(C(=O)Nc4ccccn4)cc3)c2c1 | solubility kinetic [6]: < 1 µM; Ratio IC50 [7]: 19 |
| 18 nM | 55 nM | 2.5 nM | CCN1CCN(CC#CC(=O)Nc2ccc3nccc(Oc4ccc(C(=O)Nc5ccccn5)cc4)c3c2)CC1 | Ratio IC50 [7]: 22 |
| 12 nM | 13 nM | 0.26 nM | O=C(C#CCN1CCOCC1)Nc1ccc2nccc(Oc3ccc(C(=O)Nc4ccccn4)cc3)c2c1 | – |
| 3.9 nM | 233 nM | 1 nM | CC#CC(=O)Nc1cc2c(Oc3ccc(C(=O)Nc4ccccn4)cc3)ccnc2cc1OCCCN1CCN(C)CC1 | EC50 [4]: 2.1 nM; EC50 [5]: 35 nM |
| 152 nM | > 1000 nM | 4.7 nM | CC#CC(=O)Nc1ccc2nccc(Oc3ccc(C(=O)Nc4ccccn4)cc3)c2c1 | – |
| 12 nM | 12 nM | 0.96 nM | COCC#CC(=O)Nc1cc2c(Oc3ccc(C(=O)Nc4ccccn4)cc3)ccnc2cc1OC | – |

Source: ChEMBL document CHEMBL4725253, “Discovery of quinoline-based irreversible BTK inhibitors” (Bioorg Med Chem Lett, 2020)
